Columns and labels:
[1] = tested on: alveolar macrophages (CD11c) and neutrophils (Ly6G); assay: Flow cytometry of alveolar exudate of drug fed mice; format: in vivo; conditions: 8 weeks
Description: Mice (4 week old, male C57Bl6) were purchased from the Jackson Laboratory (Bar Harbor, Me.) and acclimatized for 1 week in a specific-pathogen-free animal facility. Animal care was provided by the University of Michigan's Unit for Laboratory Animal Medicine (ULAM) and the experimental protocol was approved by the Committee on Use and Care of Animals in accordance with NIH guidelines. An oral diet containing CFZ was fed to mice as previously described (Baik J, et al., Antimicrob. Agents Chemother. 2013; 57:1218-30; Baik J, et al., PLoS One 2012; 7:e47494; Keswani R K, et al., Mol. Pharm. 2015:10). […]
Mice were euthanized as described above and the trachea was surgically exposed and cannulated with an 18G luer stub and the lungs were lavaged to obtain alveolar exudate by instilling calcium- and magnesium-free Dulbecco's PBS (DPBS) containing 0.5 mM EDTA in 1-ml aliquots for a total of 6 ml. […] Viable (using Trypan Blue staining method) and CLDI containing cells were counted using a hemocytometer.
Peritoneal and alveolar lavage was performed as stated before to obtain the respective exudates. […] For CLDI fluorescence signal experiments, cells were pelleted by centrifugation (100×g for 5 min) followed by resuspension in PBS+5% FBS (500 μl). […] These cells also had extremely high side-scatter that were measured as saturated signals. […]

[2] = Baseline vital signs of 8 wk CFZ-treated mice; format: in vivo
Procedure: Clofazimine (CFZ, Sigma-Aldrich, C8895) was prepared in sesame oil (Shirakiku, Japan, or Roland, China) and Powdered Lab Diet 5001 (PMI International, Inc., St. […] Baik et al., 2011, supra). Control mice were fed with the same diet without CFZ. The animal protocol was approved by the University of Michigan's Animal Care and Use Committee in accordance with the National Institutes of Health guidelines (UCUCA #PRO0005111). The general health status of each PBS/LPS-instilled mice was monitored by measuring body weight and rectal temperature (Microprobe Thermometer, Physitemp Instruments, Clifton, N.J.), and cardiopulmonary function (arterial oxygen saturation, respiratory rate, heart rate and pulse distention) was monitored using MouseOx with a collar clip sensor ([…] Sciences Corp, Oakmont, Pa.) as previously described (Lax S et al., (2014) BMJ open […], et al. (2014) PLoS One 9(6):e98336). In brief, one day before IT instillations (D-1) the hair around the neck of each mouse was removed using Nair (Church & Dwight, Princeton, N.J.) to enable data acquisition using the collar clip sensor. The next day (D 0), immediately prior to the first LPS/PBS dose, and every 24 h afterwards until day 6 (D 6), the body weight, temperature and MouseOx readings were recorded. MouseOx data was acquired by very brief anesthesia of the mouse using 5% isoflurane to facilitate the placement of the collar clip sensor. The mouse was then placed in an enclosed chamber with ambient light and allowed to acclimatize for 5 min at which point the animals had recovered normal activities and physiological readings.

## CC(C)/N=c1\cc2n(-c3ccc(Cl)cc3)c3ccccc3nc-2cc1Nc1ccc(Cl)cc1 [CFZ, 3-(p-chloroanilino)-10-(p-chlorophenyl)-2, 10-dihydro-2-isopropyliminophenazine]
[1]
  % of CLDI(+) cells that are CD11c(+): > 99%
  % of Ly6G(+) cells detected as CLDI+: < 2%
[2]
  arterial oxygen saturation, higher than control diet-treated: 1.5%
  behavioral signs of sickness: did not display any behavioral signs of sickness
  body temperature: unaffected
  breathing rate, lower than control diet-treated: 10.7%
  heart rate, lower than control diet-treated: 9.3%
  pulse distention, lower than control diet-treated: 16.9%
  weight, less than control diet-treated: 6.7%
[2]; n = 16
  Arterial O2 Saturation (% ± S.D.): 99.01 ± 0.24%
  Body Temperature (° C. ± S.D): 35.52 ± 0.76 °C
  Breathing rate (brpm ± S.D.): 154.29 ± 19.43 brpm
  Heart rate (bpm ± S.D.): 573.94 ± 85.28 bpm
  Pulse distention (μm ± S.D): 425.57 ± 52.32 μm
  Weight (g ± S.D): 24.39 ± 1.92 g

From patent US20160220710A1, “COMPOSITIONS AND METHODS FOR DELIVERING PHARMACEUTICAL AGENTS” (THE REGENTS OF THE UNIVERSITY OF MICHIGAN, priority 2015, published 2016)
